A word on the IC50: it is the midpoint of a concentration-inhibition curve.

Bounds are passed on as bounds.

One test deals with Escherichia coli DNA gyrase A/B tetramer (Escherichia coli, UniProt P0AES4+P0AES6). Put plainly: DNA gyrase supercoiling activity fluorescence polarisation assay. The test is classed as biochemical.
Sequence of Escherichia coli DNA gyrase A/B tetramer (P0AES4 whole entry, one chain of several): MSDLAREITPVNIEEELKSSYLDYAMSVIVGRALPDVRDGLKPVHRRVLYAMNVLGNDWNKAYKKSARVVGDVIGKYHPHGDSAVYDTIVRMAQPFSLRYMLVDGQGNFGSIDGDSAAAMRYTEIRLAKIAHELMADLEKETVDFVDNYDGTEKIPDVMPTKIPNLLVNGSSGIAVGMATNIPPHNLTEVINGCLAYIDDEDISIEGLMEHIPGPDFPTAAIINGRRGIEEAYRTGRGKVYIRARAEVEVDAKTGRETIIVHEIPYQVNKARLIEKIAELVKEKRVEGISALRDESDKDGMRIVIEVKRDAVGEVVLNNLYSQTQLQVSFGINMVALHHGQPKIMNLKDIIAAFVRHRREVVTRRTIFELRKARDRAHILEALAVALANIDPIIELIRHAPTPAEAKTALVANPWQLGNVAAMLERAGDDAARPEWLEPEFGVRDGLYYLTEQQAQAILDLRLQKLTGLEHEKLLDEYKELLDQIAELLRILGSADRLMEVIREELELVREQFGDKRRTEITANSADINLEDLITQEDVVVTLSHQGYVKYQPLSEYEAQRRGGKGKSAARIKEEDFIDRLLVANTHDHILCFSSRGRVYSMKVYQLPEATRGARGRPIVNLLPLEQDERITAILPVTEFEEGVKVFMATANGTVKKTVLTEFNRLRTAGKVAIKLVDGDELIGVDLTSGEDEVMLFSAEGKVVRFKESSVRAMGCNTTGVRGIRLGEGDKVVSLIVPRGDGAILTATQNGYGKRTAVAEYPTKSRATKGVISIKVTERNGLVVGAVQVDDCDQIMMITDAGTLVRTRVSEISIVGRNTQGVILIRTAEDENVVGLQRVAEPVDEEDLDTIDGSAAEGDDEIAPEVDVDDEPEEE
Details: not given
The protocol:
In a black, 384-well polystyrene assay plate, 30 microliters/well of 5 nM Escherichia coli DNA gyrase A/B tetramer and 130 micrograms/ml of topologically relaxed plasmid containing the triplex-forming sequence […] in an assay buffer consisting of 35 mM Tris-HCl (pH 7.5), 24 mM KCl, 4 mM MgCl2, 2 mM dithiothreitol, 1.8 mM spermidine, 5% (v/v) glycerol, 200 nM bovine serum albumin, 0.8% dimethylsulfoxide, and 0.3 mM ATP may be incubated at ambient temperature for (typically 30 minutes) in the absence or presence of 5-10 different concentrations of test compound. The supercoiling reactions may be quenched by the addition of 10 microliters/well of 40 nM oligodeoxynucleotide probe in 3× triplex-forming buffer consisting of 150 mM NaCl, and 150 mM sodium acetate at pH 3.5. The oligodeoxynucleotide probe may be 5′-BODIPY-FL-labeled TTCTTCTTC. After 60 minutes, the fluorescence anisotropy of the BODIPY-FL may be measured in a Tecan Ultra plate reader, using 485 nm excitation and 535 nm emission filters equipped with polarizers. The IC50 may be determined by nonliner regression using two control reactions. The first contains no test compound but 0.8% DMSO (100% activity) while the second control reaction contains 5 uM Ciprofloxacin and 0.8% DMSO (0% activity).
When tested in an in-vitro assay based on the DNA gyrase supercoiling activity fluorescence polarisation assay described above, the E. coli DNA gyrase supercoiling IC50 assay inhibitory activity of the following Examples was measured at the indicated IC50.
Background: In fluorescence polarisation assays a small probe gives low polarisation when free and higher when bound to something large.
`C[C@@H]1CN2c3c(F)cc(C#Cc4nccs4)cc3CC3(C(=O)NC(=O)NC3=O)[C@H]2[C@H](C)O1` (relative stereo) [Example 38, (2R,4S,4aS)-rel-10-Fluoro-2,4-dimethyl-8-(1,3-thiazol-2-ylethynyl)-1,2,4,4a-tetrahydro-2′H,6H-spiro[1,4-oxazino[4,3-a]quinoline-5,5′-pyrimidine]-2′,4′,6′(1′H,3′H)-trione] yielded an IC50 of 760 nM.

Compound `C[C@H]1CN2c3c(cc(C#Cc4nncs4)c(F)c3F)CC3(C(=O)NC(=O)NC3=O)[C@@H]2[C@@H](C)O1` (relative stereo) [Example 7, (2S,4R,4aR)-rel-9,10-Difluoro-2,4-dimethyl-8-(1,3,4-thiadiazol-2-ylethynyl)-1,2,4,4a-tetrahydro-2′H,6H-spiro[1,4-oxazino[4,3-a]quinoline-5,5′-pyrimidine]-2′,4′,6′(1′H,3′H)-trione] showed a 50% inhibitory concentration (IC50) of 410 nM. In turn, `C/C(=N\Nc1ncccn1)c1cc2c(c(F)c1F)N1C[C@@H](C)O[C@@H](C)[C@@H]1C1(C2)C(=O)NC(=O)NC1=O` (relative stereo) [Example 59, (2R,4S,4aS)-rel-9,10-Difluoro-2,4-dimethyl-8-{(1E)-1-[2-(pyrimidin-2-yl)hydrazinylidene]ethyl}-1,2,4,4a-tetrahydro-2′H,6H-spiro[1,4-oxazino[4,3-a]quinoline-5,5′-pyrimidine]-2′,4′,6′(1′H,3′H)-trione] yielded an IC50 of 1640 nM. The same measure, in the same setting: next, `CC(=O)N/N=C/c1cc2c(c(F)c1F)N1C[C@@H](C)O[C@@H](C)[C@@H]1C1(C2)C(=O)NC(=O)NC1=O` (relative stereo) [Example 23, N′-{(E)-[(2R,4S,4aS)-rel-9,10-Difluoro-2,4-dimethyl-2′,4′,6′-trioxo-1,1′,2,3′,4,4′,4a,6′-octahydro-2′H,6H-spiro[1,4-oxazino[4,3-a]quinoline-5,5′-pyrimidin]-8-yl]methylidene}acetohydrazide]: 1030 nM; `Cc1nnc(C#Cc2cc3c(cc2F)N2C[C@@H](C)O[C@@H](C)[C@@H]2C2(C3)C(=O)NC(=O)NC2=O)s1` (relative stereo) [Example 25, (2R,4S,4aS)-rel-9-Fluoro-2,4-dimethyl-8-[(5-methyl-1,3,4-thiadiazol-2-yl)ethynyl]-1,2,4,4a-tetrahydro-2′H,6H-spiro[1,4-oxazino[4,3-a]quinoline-5,5′-pyrimidine]-2′,4′,6′(1′H,3′H)-trione]: 870 nM. The same measure, in the same setting: the figure for `C[C@@H]1CN2c3c(cc(C(=O)NC4CCOC4)c(F)c3F)CC3(C(=O)NC(=O)NC3=O)[C@H]2[C@H](C)O1` (relative stereo) [Example 64, (2R,4S,4aS)-rel-9,10-Difluoro-2,4-dimethyl-2′,4′,6′-trioxo-N-(tetrahydrofuran-3-yl)-1,1′,2,3′,4,4′,4a,6′-octahydro-2′H,6H-spiro[1,4-oxazino[4,3-a]quinoline-5,5′-pyrimidine]-8-carboxamide] is 5050 nM; for `C[C@@H]1CN2c3c(cc(C(=O)NC4CCCN(C)C4)c(F)c3F)CC3(C(=O)NC(=O)NC3=O)[C@H]2[C@H](C)O1` (relative stereo) [Example 69, (2R,4S,4aS)-rel-9,10-Difluoro-2,4-dimethyl-N-(1-methylpiperidin-3-yl)-2′,4′,6′-trioxo-1,1′,2,3′,4,4′,4a,6′-octahydro-2′H,6H-spiro[1,4-oxazino[4,3-a]quinoline-5,5′-pyrimidine]-8-carboxamide] it is 8680 nM. In the case of `C[C@@H]1CN2c3c(F)cc(C#Cc4cccnc4)cc3CC3(C(=O)NC(=O)NC3=O)[C@H]2[C@H](C)O1` (relative stereo) [Example 44, (2R,4S,4aS)-rel-10-Fluoro-2,4-dimethyl-8-(pyridin-3-ylethynyl)-1,2,4,4a-tetrahydro-2′H,6H-spiro[1,4-oxazino[4,3-a]quinoline-5,5′-pyrimidine]-2′,4′,6′(1′H,3′H)-trione], the IC50 is 220 nM. Still for that read-out and setting: the figure for `C/C(=N\NC(N)=O)c1cc2c(c(F)c1F)N1C[C@@H](C)O[C@@H](C)[C@@H]1C1(C2)C(=O)NC(=O)NC1=O` (relative stereo) [Example 54, (2E)-2-{1-[(2R,4S,4aS)-rel-9,10-Difluoro-2,4-dimethyl-2′,4′,6′-trioxo-1,1′,2,3′,4,4′,4a,6′-octahydro-2′H,6H-spiro[1,4-oxazino[4,3-a]quinoline-5,5′-pyrimidin]-8-yl]ethylidene}hydrazinecarboxamide] is 2300 nM; for `C[C@@H]1CN2c3ccc(NC(=O)N4CCNC4=O)cc3CC3(C(=O)NC(=O)NC3=O)[C@H]2[C@H](C)O1` (relative stereo) [Example 76, N-[(2R,4S,4aS)-rel-2,4-Dimethyl-2′,4′,6′-trioxo-1,1′,2,3′,4,4′,4a,6′-octahydro-2′H,6H-spiro[1,4-oxazino[4,3-a]quinoline-5,5′-pyrimidin]-8-yl]-2-oxoimidazolidine-1-carboxamide] it is 16500 nM; for `C[C@H]1CN2c3c(cc(C#Cc4cn(C)cn4)c(F)c3F)CC3(C(=O)NC(=O)NC3=O)[C@@H]2[C@@H](C)O1` (racemic) [Example 13, (2S,4R,4aR)-rel-9,10-Difluoro-2,4-dimethyl-8-[(1-methyl-1H-imidazol-4-yl)ethynyl]-1,2,4,4a-tetrahydro-2′H,6H-spiro[1,4-oxazino[4,3-a]quinoline-5,5′-pyrimidine]-2′,4′,6′-(1′H,3′H)-trione] it is 2170 nM.

Take `C[C@@H]1CN2c3c(cc(C(=O)NC4CCCOC4)c(F)c3F)CC3(C(=O)NC(=O)NC3=O)[C@H]2[C@H](C)O1` (relative stereo) [Example 65, (2R,4S,4aS)-rel-9,10-Difluoro-2,4-dimethyl-2′,4′,6′-trioxo-N-(tetrahydro-2H-pyran-3-yl)-1,1′,2,3′,4,4′,4a,6′-octahydro-2′H,6H-spiro[1,4-oxazino[4,3-a]quinoline-5,5′-pyrimidine]-8-carboxamide]: the IC50 is above 10000 nM. Turning to `CCNC(=O)Nc1ccc2c(c1)CC1(C(=O)NC(=O)NC1=O)[C@H]1[C@H](C)O[C@H](C)CN21` (relative stereo) [Example 72, 1-[(2R,4S,4aS)-rel-2,4-Dimethyl-2′,4′,6′-trioxo-1,1′,2,3′,4,4′,4a,6′-octahydro-2′H,6H-spiro[1,4-oxazino[4,3-a]quinoline-5,5′-pyrimidin]-8-yl]-3-ethylurea], the IC50 worked out at 10400 nM. Still for that read-out and setting: the figure for `C[C@H]1CN2c3c(cc(C#Cc4cnccn4)c(F)c3F)CC3(C(=O)NC(=O)NC3=O)[C@@H]2[C@@H](C)O1` (relative stereo) [Example 20, (2S,4R,4aR)-rel-9,10-Difluoro-2,4-dimethyl-8-(pyrazin-2-ylethynyl)-1,2,4,4a-tetrahydro-2′H,6H-spiro[1,4-oxazino[4,3-a]quinoline-5,5′-pyrimidine]-2′,4′,6′(1′H,3′H)-trione] is 490 nM.

In turn, `C/C(=N\Nc1cnccn1)c1cc2c(c(F)c1F)N1C[C@@H](C)O[C@@H](C)[C@@H]1C1(C2)C(=O)NC(=O)NC1=O` (relative stereo) [Example 60, (2R,4S,4aS)-rel-9,10-Difluoro-2,4-dimethyl-8-{(1E)-1-[2-(pyrazin-2-yl)hydrazinylidene]ethyl}-1,2,4,4a-tetrahydro-2′H,6H-spiro[1,4-oxazino[4,3-a]quinoline-5,5′-pyrimidine]-2′,4′,6′(1′H,3′H)-trione] gave an IC50 of 260 nM. Still for that read-out and setting: the figure for `C[C@H]1CN2c3c(cc(C#Cc4ncc[nH]4)c(F)c3F)CC3(C(=O)NC(=O)NC3=O)[C@@H]2[C@@H](C)O1` (relative stereo) [Example 16, (2S,4R,4aR)-rel-9,10-Difluoro-8-(1H-imidazol-2-ylethynyl)-2,4-dimethyl-1,2,4,4a-tetrahydro-2′H,6H-spiro[1,4-oxazino[4,3-a]quinoline-5,5′-pyrimidine]-2′,4′,6′(1′H,3′H)-trione] is 690 nM.

The test is the same for the next values; noted with them: 5 nM enzyme, 0.3 mM ATP, relaxed plasmid, fluorescence anisotropy readout; read-out: E. coli DNA gyrase supercoiling IC50.
For `C[C@@H]1CN2c3c(cc(C(=O)NC4CCN(C(=O)OC(C)(C)C)C4)c(F)c3F)CC3(C(=O)NC(=O)NC3=O)[C@H]2[C@H](C)O1` (relative stereo) [Example 63, tert-Butyl 3-({[2R,4S,4aS)-rel-9,10-difluoro-2,4-dimethyl-2′,4′,6′-trioxo-1,1′,2,3′,4,4′,4a,6′-octahydro-2′H,6H-spiro[1,4-oxazino[4,3-a]quinoline-5,5′-pyrimidin]-8-yl]carbonyl}amino)pyrrolidine-1-carboxylate], the IC50 amounted to 6400 nM. For the compound “(2R,4S,4aS)-rel-10-Fluoro-2,4-dimethyl-8-[(1-methyl-1H-imidazol-2-yl)ethynyl]-1,2,4,4a-tetrahydro-2′H,6H-spiro[1,4-oxazino[4,3-a]quinoline-5,5′-pyrimidine]-2′,4′,6(1′H,3′H)-trione [Example 42]”, the IC50 came to 640 nM.

Turning to `C[C@@H]1CN2c3c(F)cc(C#Cc4cncs4)cc3CC3(C(=O)NC(=O)NC3=O)[C@H]2[C@H](C)O1` (relative stereo) [Example 39, (2R,4S,4aS)-rel-10-Fluoro-2,4-dimethyl-8-(1,3-thiazol-5-ylethynyl)-1,2,4,4a-tetrahydro-2′H,6′-spiro[1,4-oxazino[4,3-a]quinoline-5,5′-pyrimidine]-2′,4′,6′(1′H,3′H)-trione], the IC50 was determined as 870 nM.

The values are drawn from US20100261719A1, “CHEMICAL COMPOUNDS” (priority 2007, published 2010).
